Measurements from patent US11535643B2, “Macrolides with modified desosamine sugars and uses thereof” (President and Fellows of Harvard College, priority 2015, dated 2022).
Converted amounts (≈) assume the structure as drawn.

Tests used:
Type in all cases: cell-based
S. aureus = assay: Broth dilution MIC determination (CLSI) against S. aureus strains
Method in brief: (§1)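 CLSI broth dilution MIC; panel of unique strains incl. multidrug-resistant ones, focus on macrolide-resistance mechanisms; azithromycin, solithromycin as controls.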

S. pneumoniae = assay: Broth dilution MIC determination (CLSI) against S. pneumoniae strains
Method in brief: as §1

S. pyogenes = assay: Broth dilution MIC determination (CLSI) against S. pyogenes strains
Method in brief: as §1

E. faecalis = assay: Broth dilution MIC determination (CLSI) against E. faecalis strains
Method in brief: as §1

E. coli = assay: Broth dilution MIC determination (CLSI) against E. coli strains
Method in brief: as §1

A. baumannii = assay: Broth dilution MIC determination (CLSI) against A. baumannii strains
Method in brief: as §1

K. pneumoniae = assay: Broth dilution MIC determination (CLSI) against K. pneumoniae strains
Method in brief: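 CLSI broth-dilution MICs across a panel including multidrug- and macrolide-resistant strains, with azithromycin and solithromycin as control compounds.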

P. aeruginosa = assay: Broth dilution MIC determination (CLSI) against P. aeruginosa strains
Method in brief: as §1

[1] = S. aureus (MRSA) GISA USA600, strain MP-619 UNT-120 (Table N2)
[2] = S. aureus (MRSA) ST-228 cErm, strain MP-513 (Table N2)
[3] = S. aureus (MRSA) USA100, strain MP-618 UNT-096 (Table N2)
[4] = S. aureus (MRSA) USA300, strain MP-549 (Table N2)
[5] = S. aureus (MRSA) ermA phenotype, strain MP-620 UNT-146 (Table N2)
[6] = S. aureus ATCC29213, strain MP-12 (Table N2)
[7] = S. aureus ATCCBAA-977, strain MP-17 (Table N2)
[8] = S. pneumoniae ATCC49619, strain MP-21 (Table N2)
[9] = S. pneumoniae mefA, strain MP-626 UNT-038 (Table N2)
[10] = S. pneumoniae mefA, strain MP-627 UNT-039 (Table N2)
[11] = S. pyogenes ATCC19615, strain MP-19 (Table N2)
[12] = S. pyogenes mac resistant, strain MP-625 UNT-014 (Table N2)
[13] = E. faecalis ATCC29212, strain MP-24 (Table N2)
[14] = E. faecalis van resistant, strain UNT-039 (Table N2)
[15] = E. coli ATCC25922, strain MP-4 (Table N2)
[16] = E. coli ATCC25922:tolC, strain MP-9 (Table N2)
[17] = E. coli clinical, strain MP541 (Table N2)
[18] = E. coli clinical-cErm, strain MP532 (Table N2)
[19] = A. baumannii ATCC19606, strain MP-15 (Table N2)
[20] = A. baumannii clinical, strain MP576 (Table N2)
[21] = A. baumannii clinical, strain MP577 (Table N2)
[22] = K pneumomae ATCC10031, strain MP-14 (Table N2)
[23] = K. pneumoniae clinical, strain MP546 (Table N2)
[24] = K. pneumoniae clinical, strain MP548 (Table N2)
[25] = P. aeruginosa ATCC27853, strain MP-3 (Table N2)
[26] = P. aeruginosa PAO1, strain MP-7 (Table N2)
[27] = P. aeruginosa PAO1:mex, strain MP-8 (Table N2)

CCC1OC(=O)C(C)C(=O)C(C)C(OC2OC(C)CC(N3CCOC3CO)C2O)C(C)(OC)CC(C)CNC(C)C2N(CCCCn3cc(-c4cccc(N)c4)nn3)C(=O)OC12C (stereo not drawn) [FSM-120380]
MIC (S. aureus; [1]): >64 mg/L
MIC (S. aureus; [2]): >64 mg/L
MIC (S. aureus; [3]): >64 mg/L
MIC (S. aureus; [4]): >64 mg/L
MIC (S. aureus; [5]): >64 mg/L
MIC (S. aureus; [6]): >64 mg/L
MIC (S. aureus; [7]): >64 mg/L
MIC (S. pneumoniae; [8]): 8 mg/L (≈ 9.03 µM)
MIC (S. pneumoniae; [9]): 4 mg/L (≈ 4.51 µM)
MIC (S. pneumoniae; [10]): 4 mg/L (≈ 4.51 µM)
MIC (S. pyogenes; [11]): 8 mg/L (≈ 9.03 µM)
MIC (S. pyogenes; [12]): 32 mg/L (≈ 36.1 µM)
MIC (E. faecalis; [13]): 64 mg/L (≈ 72.2 µM)
MIC (E. faecalis; [14]): >64 mg/L
MIC (E. coli; [15]): >64 mg/L
MIC (E. coli; [16]): 32 mg/L (≈ 36.1 µM)
MIC (E. coli; [17]): >64 mg/L
MIC (E. coli; [18]): >64 mg/L
MIC (A. baumannii; [19]): >64 mg/L
MIC (A. baumannii; [20]): >64 mg/L
MIC (A. baumannii; [21]): >64 mg/L
MIC (K. pneumoniae; [22]): >64 mg/L
MIC (K. pneumoniae; [23]): >64 mg/L
MIC (K. pneumoniae; [24]): >64 mg/L
MIC (P. aeruginosa; [25]): >64 mg/L
MIC (P. aeruginosa; [26]): >64 mg/L
MIC (P. aeruginosa; [27]): >64 mg/L

CCC1OC(=O)C(C)C(=O)C(C)C(OC2OC(C)CC(NCC#N)C2O)C(C)(OC)CC(C)CNC(C)C2N(CCCCn3cc(-c4cccc(N)c4)nn3)C(=O)OC12C (stereo not drawn) [FSM-120369]
MIC S. aureus ATCC29213 (S. aureus; ATCC29213, Strain No. MP-12): 32 mg/L (≈ 38.1 µM)
MIC S. aureus ATCCBAA-977 (S. aureus; ATCCBAA-977, Strain No. MP-17): 32 mg/L (≈ 38.1 µM)
MIC S. aureus (MRSA) GISA USA600 (S. aureus; GISA USA600, Strain No. MP-619 UNT-120): >64 mg/L
MIC S. aureus (MRSA) ST-228 cErm (S. aureus; ST-228 cErm, Strain No. MP-513): >64 mg/L
MIC S. aureus (MRSA) USA100 (S. aureus; USA100, Strain No. MP-618 UNT-096): >64 mg/L
MIC S. aureus (MRSA) USA300 (S. aureus; USA300, Strain No. MP-549): 32 mg/L (≈ 38.1 µM)
MIC S. aureus (MRSA) ermA phenotype (S. aureus; ermA phenotype, Strain No. MP-620 UNT-146): >64 mg/L
MIC S. pneumoniae ATCC49619 (S. pneumoniae; ATCC49619, Strain No. MP-21): 0.5 mg/L (≈ 0.596 µM)
MIC S. pneumoniae mefA (S. pneumoniae; Strain No. MP-626 UNT-038): 0.25 mg/L (≈ 0.298 µM)
MIC S. pneumoniae mefA (S. pneumoniae; Strain No. MP-627 UNT-039): 0.25 mg/L (≈ 0.298 µM)
MIC S. pyogenes ATCC19615 (S. pyogenes; ATCC19615, Strain No. MP-19): 0.5 mg/L (≈ 0.596 µM)
MIC S. pyogenes mac resistant (S. pyogenes; mac resistant, Strain No. MP-625 UNT-014): 2 mg/L (≈ 2.38 µM)
MIC E. faecalis ATCC29212 (E. faecalis; ATCC29212, Strain No. MP-24): 4 mg/L (≈ 4.77 µM)
MIC E. faecalis van resistant (E. faecalis; van resistant, Strain No. UNT-039): >64 mg/L
MIC E. coli ATCC25922 (E. coli; ATCC25922, Strain No. MP-4): >64 mg/L
MIC E. coli ATCC25922:tolC (E. coli; ATCC25922:tolC, Strain No. MP-9): >64 mg/L
MIC E. coli clinical (E. coli; clinical, Strain No. MP541): >64 mg/L
MIC E. coli clinical-cErm (E. coli; clinical-cErm, Strain No. MP532): >64 mg/L
MIC A. baumannii ATCC19606 (A. baumannii; ATCC19606, Strain No. MP-15): >64 mg/L
MIC A. baumannii clinical (A. baumannii; Strain No. MP576): >64 mg/L
MIC A. baumannii clinical (A. baumannii; Strain No. MP577): >64 mg/L
MIC K. pneumoniae ATCC10031 (K. pneumoniae; ATCC10031, Strain No. MP-14): 16 mg/L (≈ 19.1 µM)
MIC K. pneumoniae clinical (K. pneumoniae; Strain No. MP546): >64 mg/L
MIC K. pneumoniae clinical (K. pneumoniae; Strain No. MP548): >64 mg/L
MIC P. aeruginosa ATCC27853 (P. aeruginosa; ATCC27853, Strain No. MP-3): >64 mg/L
MIC P. aeruginosa PAO1 (P. aeruginosa; PAO1, Strain No. MP-7): >64 mg/L
MIC P. aeruginosa PAO1:mex (P. aeruginosa; PAO1:mex, Strain No. MP-8): >64 mg/L

CCC1OC(=O)C(C)C(=O)C(C)C(OC2OC(C)CC(NCc3cccnc3)C2O)C(C)(OC)CC(C)CNC(C)C2N(CCCCn3cc(-c4cccc(N)c4)nn3)C(=O)OC12C (stereo not drawn) [FSM-120384]
MIC (S. aureus; [1]): >64 mg/L
MIC (S. aureus; [2]): >64 mg/L
MIC (S. aureus; [3]): >64 mg/L
MIC (S. aureus; [4]): >64 mg/L
MIC (S. aureus; [5]): >64 mg/L
MIC (S. aureus; [6]): >64 mg/L
MIC (S. aureus; [7]): >64 mg/L
MIC (S. pneumoniae; [8]): 2 mg/L (≈ 2.24 µM)
MIC (S. pneumoniae; [9]): 0.5 mg/L (≈ 0.561 µM)
MIC (S. pneumoniae; [10]): 1 mg/L (≈ 1.12 µM)
MIC (S. pyogenes; [11]): 1 mg/L (≈ 1.12 µM)
MIC (S. pyogenes; [12]): 4 mg/L (≈ 4.49 µM)
MIC (E. faecalis; [13]): 32 mg/L (≈ 35.9 µM)
MIC (E. faecalis; [14]): >64 mg/L
MIC (E. coli; [15]): >64 mg/L
MIC (E. coli; [16]): 8 mg/L (≈ 8.98 µM)
MIC (E. coli; [17]): >64 mg/L
MIC (E. coli; [18]): >64 mg/L
MIC (A. baumannii; [19]): 64 mg/L (≈ 71.8 µM)
MIC (A. baumannii; [20]): >64 mg/L
MIC (A. baumannii; [21]): >64 mg/L
MIC (K. pneumoniae; [22]): 16 mg/L (≈ 18 µM)
MIC (K. pneumoniae; [23]): >64 mg/L
MIC (K. pneumoniae; [24]): >64 mg/L
MIC (P. aeruginosa; [25]): >64 mg/L
MIC (P. aeruginosa; [26]): >64 mg/L
MIC (P. aeruginosa; [27]): >64 mg/L
